Consider five molecules from US10006020B2 (LESAFFRE ET COMPAGNIE, priority 2008, dated 2018).

Data set [1] addresses Piromyces sp. E2 xylose isomerase, codon-optimized (plasmid p426H7-opt.XI-Piro) (Piromyces sp. E2, UniProt A0ACD6B9F5). As to the kind of experiment: Xylitol inhibition of the xylose isomerase, comparison enzyme. In kind it is biochemical.
Description: (§9) 50 ml of cultures of yeast cells were grown to the exponential phase in synthetic minimal medium with 2% glucose. The cells were harvested, washed twice in Tris-HCl buffer (pH 7.5) and disrupted by means of glass beads (Ø=0.45 nm) for 8 min on a Vibrax (Janke & Kunkel, Vibrax-VBR) at 4° C. Cell debris was removed by centrifugation for 10 min at 13,000 rpm. Subsequently, the supernatant was collected and filled up to 2 ml with cold Tris-HCl buffer (pH 7.5) and used as a raw extract for the protein determination and for the measurement of the enzyme activities or the xylitol inhibition.
(§10) The XI activity was performed at 30° C. in a reaction mix (100 mM of Tris-HCl, pH 7.5; 10 mM of MgCl2, 0.23 mM of NADH; 2 U of sorbitol dehydrogenase) with different raw extract concentrations. Additionally, different concentrations of xylitol (10-100 mM) were present in the reaction mix.
Data set [2] deals with T1, Clostridium phytofermentans xylose isomerase, codon-optimized form (plasmid p426H7-opt.XI-Clos; protein SEQ ID NO: 1, ORF SEQ ID NO: 3) (Lachnoclostridium phytofermentans, UniProt A9KN98). As to the kind of experiment: Xylitol inhibition of the xylose isomerase, codon-optimized XI gene. In kind it is biochemical. The procedure:
(§1) 50 ml of cultures of yeast cells were grown to the exponential phase in synthetic minimal medium with 2% glucose. The cells were harvested, washed twice in Tris-HCl buffer (pH 7.5) and disrupted by means of glass beads (Ø=[…]) for 8 min on a Vibrax (Janke & Kunkel, Vibrax-VBR) at 4° C. Cell debris was removed by centrifugation for 10 min at 13,000 rpm. Subsequently, the supernatant was collected and filled up to 2 ml with cold Tris-HCl buffer (pH 7.5) and used as a raw extract for the protein determination and for the measurement of the enzyme activities or the xylitol inhibition.
(§2) Recombinant yeast cells with the vector p426H7-opt.XI-Piro or the vector p426HXT7-6HIS, respectively, served as a comparison. […] The acceptance of NADH as a measured variable was determined spectrophotometrically at a wave length of 340 nm. The reaction was started by adding xylose. […]
(§3) K was determined via the equation Km′=Km′=Km*(1+i/Ki), i being the xylitol concentration used and Km′ being the apparent Km value at the corresponding xylitol concentration.
(§4) The strain CEN.PK2-1C transformed with the plasmid p426H7-opt.XI-Clos and p426H7-opt.XI-Piro, respectively, was grown over night in synthetic complete medium with 2% glucose and no uracil. Raw extracts were prepared and quantitative enzyme tests with constant xylitol concentrations of 10-100 mM were performed.

Data set [3] has as its target T2, Clostridium phytofermentans xylose isomerase (SEQ ID NO: 1) (Lachnoclostridium phytofermentans, UniProt A9KN98).
T2 construct: raw extract
As to the kind of experiment: Xylitol inhibition of the xylose isomerase (method names p426H7-XI-Clos). In kind it is biochemical.
Description: as §9, §10

Data set [4] concerns Piromyces sp. E2 xylose isomerase. The note with it: result in words, prior art; cited from earlier work.
Data set [5] addresses Clostridium phytofermentans xylose isomerase, native form (plasmid p426H7-XI-Clos; protein SEQ ID NO: 1, ORF SEQ ID NO: 2) (Lachnoclostridium phytofermentans, UniProt A9KN98). Put plainly: Xylose isomerase activity, enzyme kinetics with xylose (raw extract, sorbitol dehydrogenase coupled, NADH 340 nm), native XI gene. The conditions noted are these: xylose 6.25-500 mM, 30° C. In kind it is biochemical. As for the experimental part:
(§5) The strain CEN.PK2-1C transformed with the plasmid p426H7-XI-Clos and p426H7-opt.XI-Clos, respectively, was grown over night in synthetic complete medium with 2% glucose and no uracil. Raw extracts were prepared and quantitative enzyme tests were performed. A representative result is shown. The values indicated in table 3 are average values from at least 3 independent measurements.
(§6) 50 ml of cultures of yeast cells were grown to the exponential phase in synthetic minimal medium with 2% glucose. The cells were harvested, washed twice in Tris-HCl buffer (pH 7.5) and disrupted by means of glass beads (Ø=[…]) for 8 min on a Vibrax (Janke & Kunkel, Vibrax-VBR) at 4° C. Cell debris was removed by centrifugation for 10 min at 13,000 rpm. […]
(§7) Recombinant yeast cells containing the empty vector p426HXT7-6HIS served as a comparison. […] The acceptance of NADH as a measured variable was determined spectrophotometrically at a wave length of 340 nm. […]
(§8) The strain CEN.PK2-1C transformed with the plasmid p426H7-XI-Clos and p426H7-opt.XI-Clos, respectively, was grown over night in synthetic complete medium with 2% glucose and no uracil. Raw extracts were prepared and quantitative enzyme tests were performed.

Data set [6] deals with T1, Clostridium phytofermentans xylose isomerase, codon-optimized form (plasmid p426H7-opt.XI-Clos; protein SEQ ID NO: 1, ORF SEQ ID NO: 3). Put plainly: Xylose isomerase activity, enzyme kinetics with xylose (raw extract, sorbitol dehydrogenase coupled, NADH 340 nm), codon-optimized XI gene. In kind it is biochemical. The note with it: table 3; xylose 6.25-500 mM, 30° C., pH 7.5, raw extract. As for the experimental part: as §5, §6, §7, §8

Substrate in data set [7]: OC1OC[C@@H](O)[C@H](O)[C@H]1O
Put plainly: purified protein, by the assay type. The conditions noted are these: other: xylose 6.25-500 mM, 30° C., pH 7.5, raw extract of CEN.PK2-1C.

The subject of data set [8] is xylose isomerase from C. phytofermentans. As to the kind of experiment: Measurement of the xylitol inhibition of the xylose isomerase (raw extracts). In kind it is biochemical, Clostridium phytofermentans. The conditions noted are these: from the determined Ki values. The procedure: as §1, §2, §3, §4
In data set [9] the test system is yeast strain MKY09. As to the kind of experiment: Growth test on agar plates with SC medium and 2% xylose as only carbon source. In kind it is cell-based, S. cerevisiae. The conditions noted are these: SC medium. The source says:
Growth tests of recombinant S. cerevisiae strains, which include the bacterial D-xylose metabolism with the xylose isomerase from C. phytofermentans. […] The empty vector p426HXT7-6HIS (5A) served as the negative control.
In the yeast strain CEN.PK2-1C, all the genes of the non-oxidative pentose phosphate pathway as well as the xylulokinase (XKS1) and GAL2 were overexpressed. To this end, the endogenous promoters were replaced with the truncated HXT7 promoter.
The obtained PCR products were together with the vector p426HXT7-6HIS linearized with EcoRI/BamHI transformed in yeast and cloned via in vivo recombination into the plasmid between the HXT7 promoter or CYC1 terminator, respectively (FIG. 4). The sequence of the plasmids obtained was verified by means of restriction analysis. […] However, it was not possible to amplify the desired PCR product with the xylose isomerase from the organisms Streptomyces diastaticus and Leifsonia xyli. Both xylose isomerases thus could not be tested on functionality in yeast.
To this end, the codon-optimized XI-ORF was amplified with primers and cloned into the linearized vector p426HXT7-6HIS (see “Execution of the screen”). The sequence of the obtained plasmid p426H7-opt.XI-Clos was verified by means of restriction analysis. To test the functionality of the codon-optimized isomerase, the plasmid p426H7-opt.XI-Clos was transformed in the strain MKY09. […]

Entries after “also recorded” stand apart in the source; their conditions may differ.

Sequence of Piromyces sp. E2 xylose isomerase, codon-optimized (plasmid p426H7-opt.XI-Piro) (A0ACD6B9F5 1-437): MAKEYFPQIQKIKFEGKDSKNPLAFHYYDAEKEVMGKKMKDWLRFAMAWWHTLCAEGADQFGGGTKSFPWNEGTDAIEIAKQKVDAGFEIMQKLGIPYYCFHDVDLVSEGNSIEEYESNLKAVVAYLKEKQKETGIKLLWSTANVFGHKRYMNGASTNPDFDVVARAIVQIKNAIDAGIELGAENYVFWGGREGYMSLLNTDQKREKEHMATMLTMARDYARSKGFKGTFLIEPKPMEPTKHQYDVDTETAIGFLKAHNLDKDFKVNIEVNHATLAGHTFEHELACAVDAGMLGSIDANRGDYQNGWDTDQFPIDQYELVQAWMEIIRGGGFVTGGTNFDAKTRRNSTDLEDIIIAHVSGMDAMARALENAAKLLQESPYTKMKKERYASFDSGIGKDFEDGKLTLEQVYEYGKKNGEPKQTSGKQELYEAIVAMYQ

As a reminder, the Ki is a measure of affinity in units of concentration, obtained from inhibition or displacement. A lower Ki goes with tighter binding. For `OC[C@@H](O)[C@H](O)[C@@H](O)CO` [xylitol], the inhibitory constant (Ki) in [1] was 4.67 ± 1.77 mM; in data set [2] it was 14.5 ± 1.08 mM; in data set [3], 14.2 ± 1.48 mM. The xylitol inhibition result in data set [3] (result in words) was “competitive inhibition; also recorded: significantly less inhibited by xylitol than the xylose isomerase from Piromyces sp.E2; also recorded: only slightly inhibited”. Moreover, the inhibition by xylitol entry in [4] is reported as “strongly inhibited”.
Usually Km stands for the concentration of substrate that gives half-maximal velocity. Take `OC1OC[C@@H](O)[C@H](O)[C@H]1O` (some centres unmarked) [xylose]: the Vmax in data set [5] (table 3, pH 7.5, raw extract) is on record as 0.0076 μmol/min^−1 protein^−1) mg; in data set [6], 0.0344 μmol/min^−1 protein^−1) mg. Moreover, the Km in [5] (pH 7.5, raw extract of CEN.PK2-1C) stood at 61.8 ± 3.4 mM.

B1: Clostridium phytofermentans xylose isomerase, native form (plasmid p426H7-XI-Clos; protein SEQ ID NO: 1, ORF SEQ ID NO: 2) (Lachnoclostridium phytofermentans … (protein)
chain: MKNYFPNVPEVKYEGPNSTNPFAFKYYDANKVVAGKTMKEHCRFALSWWHTLCAGGADPFGVTTMDRTYGNITDPMELAKAKVDAGFELMTKLGIEFFCFHDADIAPEGDTFEESKKNLFEIVDYIKEKMDQTGIKLLWGTANNFSHPRFMHGASTSCNADVFAYAAAKIKNALDATIKLGGKGYVFWGGREGYETLLNTDLGLELDNMARLMKMAVEYGRANGFDGDFYIEPKPKEPTKHQYDFDTATVLAFLRKYGLEKDFKMNIEANHATLAGHTFEHELAMARVNGAFGSVDANQGDPNLGWDTDQFPTDVHSATLAMLEVLKAGGFTNGGLNFDAKVRRGSFEFDDIAYGYIAGMDTFALGLIKAAEIIDDGRIAKFVDDRYASYKTGIGKAIVDGTTSLEELEQYVLTHSEPVMQSGRQEVLETIVNNILFR
In the case of B1, in data set [7], the Km is 61.85 ± 3.41 mM and the Vmax was 0.0076 μmol/min^−1 mg protein^−1.

B2: xylose isomerase from C. phytofermentans: prokaryotic xylose isomerase of Clostridium phytofermentans, protein SEQ ID NO: 1; gene form not specified at the place (protein)
chain: B1 chain
modifications: Clostridium phytofermentans
notes: gene form not specified at the place
As for B2, the “inhibition by xylitol compared with the xylose isomerase from Piromyces sp.E2” value in [8] was “significantly less inhibited by xylitol”. The “growth on plates containing xylose” value in data set [9] is “good growth”.

B3: Clostridium phytofermentans xylose isomerase, codon-optimized form (plasmid p426H7-opt.XI-Clos; protein SEQ ID NO: 1, ORF SEQ ID NO: 3) (Lachnoclostridium … (protein)
chain: B1 chain
For B3, in [7], the Km is reported as 66.01 ± 1^ mM and the Vmax is reported as 0.0344 μmol/min^−1 mg protein^−1.
